Measurements as given in patent US20240285497A1, “METHOD FOR EVALUATING AN ABILITY OF A TEST SAMPLE TO TRIGGER A FOREIGN BODY REACTION IN THE SKIN, A METHOD FOR SCREENING A SUBSTANCE HAVING AN ABILITY TO INHIBIT A FOREIGN BODY REACTION IN THE SKIN, AND AN AGENT FOR INHIBITING A FOREIGN BODY REACTION IN THE SKIN” (priority 2021, published 2024).

Tests used:
[1] = tested on: xenobiotic responsive element (XRE); test: Screening: inhibition of FICZ-triggered reporter protein expression in XRE-NLuc::HaCaT cells; format: cell-based, human; settings: FICZ 5,000 nM, 24 hours
Protocol: First, in the same manner as in Experiment 1-2, XRE-NLuc::HaCaT cells were suspended in a DMEM medium at the density of 1×10^5 cell/mL, and 100 μL of the thus obtained suspension was added to each well of white 96-well plates (Thermo Fisher Scientific, MA, U.S.A.; Catalogue No.: 136102) so that a number of the cells in each well was 10,000 cells/well. In accordance with the conventional method, the cells were incubated for 24 hours at 37° C. and 5% CO2. Thereafter, the DMEM medium was removed, and 100 μL of a new DMEM medium containing […] of FICZ, which was confirmed to activate the expression of the reporter protein in Experiment 1-2, and a candidate substance at a predetermined concentration. Meanwhile, reference samples were also prepared by adding 100 μL of a DMEM medium containing 5,000 nM of FICZ but not containing candidate substances. In this experiment, 5-hydroxy-4-phenyl-2(5H)butenolide (hereinafter also referred to as “Fraglide-1” or “FG1”) and, as a positive control, cinnamaldehyde, which is known to have an effect of inhibiting a foreign body reaction in which a xenobiotic responsive element (XRE) is involved, were used as test substances. After incubation for 24 hours at 37° C. and 5% CO2, the expression level of the reporter protein (luminescence intensity) and the viable cell count were measured in accordance with the method described in Experiment 1-2, and the expression of the reporter protein per unit number of viable cells was obtained. The inhibition rate (Inhibition (%)) of the expression of the reporter protein exerted by each candidate substance was calculated in accordance with the following formula.
In the above formula, (Reporter Expression)FICZ indicates the expression of the reporter protein per unit number of viable cells obtained from the reference samples: i.e., the cells incubated in the medium containing 5,000 nM of FICZ but not containing candidate substances. Meanwhile, (Reporter Expression)FICZ+TEST SAMPLE indicates the expression of the reporter protein per unit number of viable cells obtained from the cells incubated in the medium containing 5,000 nM of FICZ and a candidate substance. The results shown in FIG. 6 were the mean obtained from three independent experiments. The error bars represent the standard error (SE).

[2] = tested on: xenobiotic responsive element (XRE); test: Evaluation of ability to trigger a foreign body reaction using XRE-NLuc::HaCaT reporter cells (NLuc luminescence per viable cell); format: cell-based, human
Protocol: First, XRE-NLuc::HaCaT cells were suspended in a DMEM medium at the density of 1×10^5 cell/mL, and 100 μL of the thus obtained suspension was added to each well of white 96 well plates (Thermo Fisher Scientific, MA, U.S.A.; Catalogue No.: 136102) so that the number of the cells in each well was 10,000 cells/well. In accordance with a conventional method, the cells were incubated at 37° C., 5% CO2 for 24 hours. Thereafter, the DMEM medium was removed, and 100 μL of a new DMEM medium containing FICZ (6-Formylindolo[3,2-b]carbazole; CAS RN: 172922-91-7) as a test sample at a predetermined concentration was added, followed by further incubation for 24 hours at 37° C., 5% CO2. FICZ is known as a substance that triggers a foreign body reaction in which XRE is involved. Meanwhile, negative controls were prepared by adding 100 μL of a DMEM medium containing no FICZ instead of the DMEM medium containing FICZ, which were also incubated for 24 hours at 37° C., 5% CO2.
After the above-described incubation for 24 hours, the number of cells in each well was counted by a colorimetric method based on the degradation of tetrazolium salt (WST-1) by mitochondrial dehydrogenase in viable cells. Specifically, 3 μL of Premix WST-1 (Product Name “Premix WST-1 Cell Proliferation Assay System”; Takara Bio Inc., Shiga, Japan; Catalogue No.: MK400) was added to each well of 96 well plates, and then the cells were cultured for 1 hour at 37° C., 5% CO2. Thereafter, 93 μL of cell culture supernatant was removed from each well to measure the absorbance of the supernatant in each well. The removed supernatants were transferred to transparent 96 well plates, and then the absorbance at 450 nm (A450) and, as a reference wavelength, the absorbance at 670 nm (A670) were measured using iMark microplate reader (Bio-Rad; Catalogue No.: 168-1130JA). A value (A450-A670) was obtained by subtracting the absorbance at 670 nm (A670) from the absorbance at 450 nm (A450). The relative viable cell count (%) was expressed as a relative value with the value (A450-A670) obtained for the negative control as 100%.
Meanwhile, the expression level of the reporter protein was measured using samples left on the white 96-well plates after removing the supernatants for the viable cell count measurement. Briefly, 7 μL of Nano-Glo Luciferase Assay System (Promega; Catalogue No.: N110) was added to each well of the white 96-well plate. After 3 mins, the luminescence intensity obtained from the reporter protein produced by XRE-NLuc::HaCaT cells in each well was measured using GloMax Navigator Microplate Luminometer (Promega; Catalogue No.: GM2000). The obtained luminescence intensities were divided by the relative viable cell counts obtained by the above-described colorimetric method to obtain the expression level of the reporter protein (luminescence intensity) per unit number of viable cells.
In FIG. 3, the luminescence intensity per unit number of viable cells obtained from XRE-NLuc::HaCaT cells incubated with each of the DMEM medium containing FICZ at different concentrations was shown as a relative value, with the luminescence intensity per unit number of viable cells obtained for the negative control set to 1. […] In the figure, “*” and “**” indicate statistically significant differences (p<0.05 and p<0.01, respectively) from the negative control (“FICZ Concentration 0 nM” in FIG. 3).
The ability of each test sample to trigger a foreign body reaction was evaluated using XRE-NLuc::HaCaT cells in the same manner as in Experiment 1-2, except that I3C (Indole-3-carbinol, CAS RN: 700-06-1), ITE (2-(1′H-indole-3′-carbonyl)-thiazole-4-carboxylic acid methyl ester, CAS RN: 448906-42-1), and Indirubin (CAS RN: 479-41-4) were used instead of FICZ as test samples and the amount of each test sample added to the DMEM medium was appropriately changed.

Molecule	Inhibition (%) of expression of the reporter protein triggered by FICZ ([1]; 12.5 μM test substance)	Inhibition (%) of expression of the reporter protein triggered by FICZ ([1]; 25 μM test substance)	Inhibition (%) of expression of the reporter protein triggered by FICZ ([1]; 50 μM test substance)	luminescence intensity (reporter protein expression) per unit number of viable cells relative to negative control ([2]; 4 nM FICZ, 24 hours, XRE-NLuc::HaCaT cells)	luminescence intensity from XRE-NLuc::HaCaT cells, dependence on concentration ([2]; FICZ at different concentrations, 24 hours)	EC50 ([2]; XRE-NLuc::HaCaT cells, reporter protein expression)	Present Experiment Maximum Effective concentration Max. Induction ([2]; XRE-NLuc::HaCaT cells, concentration at which reporter expression was maximized)
O=C1C=C(c2ccccc2)C(O)O1 (stereo not shown) [Fraglide-1, 5-hydroxy-4-phenyl-2(5H)butenolide]	58%	68%	83%	–	–	–	–
6-formylindolo[3,2-b] carbazole [FICZ]	–	–	–	about three times higher	increased along with the concentration of FICZ	12 nM	0.5 µM
